Measured values published in PubChem BioAssay (NCI).
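Step 1: Grow cells in 96-well plates. Step 2: Expose to compound for 48 hours at 5 concentrations. Step 3: Interpolate endpoints linearly; if unreached, use highest concentration. TGI denotes the concentration required for complete inhibition of growth.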

How the values were obtained:
Test in all cases: DTP human tumour cell line panel, 48 h
SK-MEL-2 melanoma = tested on: SK-MEL-2 melanoma
T-47D breast = tested on: T-47D breast
RXF 393 renal = tested on: RXF 393 renal
HL-60(TB) leukemia = tested on: HL-60(TB) leukemia
COLO 205 colon = tested on: COLO 205 colon
SF-539 CNS = tested on: SF-539 CNS
HOP-62 NSCLC = tested on: HOP-62 NSCLC
MALME-3M melanoma = tested on: MALME-3M melanoma
DU-145 prostate = tested on: DU-145 prostate
LOX IMVI melanoma = tested on: LOX IMVI melanoma
NCI/ADR-RES ovarian = tested on: NCI/ADR-RES ovarian
HCT-116 colon = tested on: HCT-116 colon
MDA-MB-435 = tested on: MDA-MB-435
SR leukemia = tested on: SR leukemia
PC-3 prostate = tested on: PC-3 prostate
OVCAR-3 ovarian = tested on: OVCAR-3 ovarian
MCF7 breast = tested on: MCF7 breast
A498 renal = tested on: A498 renal
HOP-92 NSCLC = tested on: HOP-92 NSCLC
SNB-75 CNS = tested on: SNB-75 CNS
HCC-2998 colon = tested on: HCC-2998 colon
SK-OV-3 ovarian = tested on: SK-OV-3 ovarian
786-0 renal = tested on: 786-0 renal
EKVX NSCLC = tested on: EKVX NSCLC
M14 melanoma = tested on: M14 melanoma
U251 CNS = tested on: U251 CNS
UACC-62 melanoma = tested on: UACC-62 melanoma
SF-268 CNS = tested on: SF-268 CNS
SK-MEL-28 melanoma = tested on: SK-MEL-28 melanoma
SK-MEL-5 melanoma = tested on: SK-MEL-5 melanoma
UACC-257 melanoma = tested on: UACC-257 melanoma
MOLT-4 leukemia = tested on: MOLT-4 leukemia
NCI-H226 lung = tested on: NCI-H226 lung
TK-10 renal = tested on: TK-10 renal
MDA-MB-231 breast = tested on: MDA-MB-231 breast
OVCAR-4 ovarian = tested on: OVCAR-4 ovarian
SN12C renal = tested on: SN12C renal
CAKI-1 renal = tested on: CAKI-1 renal
HT29 colon = tested on: HT29 colon
HS 578T breast = tested on: HS 578T breast
A549 NSCLC = tested on: A549 NSCLC
OVCAR-8 ovarian = tested on: OVCAR-8 ovarian
IGROV1 ovarian = tested on: IGROV1 ovarian
MDA-N = tested on: MDA-N
NCI-H522 lung = tested on: NCI-H522 lung
SF-295 CNS = tested on: SF-295 CNS
NCI-H460 lung = tested on: NCI-H460 lung
NCI-H23 lung = tested on: NCI-H23 lung
CCRF-CEM leukemia = tested on: CCRF-CEM leukemia
HCT-15 colon = tested on: HCT-15 colon
KM12 colon = tested on: KM12 colon
OVCAR-5 ovarian = tested on: OVCAR-5 ovarian
ACHN renal = tested on: ACHN renal
RPMI-8226 leukemia = tested on: RPMI-8226 leukemia
SW-620 colon = tested on: SW-620 colon
K-562 leukemia = tested on: K-562 leukemia

CN(C)N1C(=O)S/C(=C\c2ccc([N+](=O)[O-])cc2)C1=O
TGI (SK-MEL-2 melanoma): > 100 µM
TGI (T-47D breast): > 100 µM
TGI (RXF 393 renal): > 100 µM
TGI (HL-60(TB) leukemia): > 100 µM
TGI (COLO 205 colon): > 100 µM
TGI (SF-539 CNS): > 100 µM
TGI (HOP-62 NSCLC): > 100 µM
TGI (MALME-3M melanoma): > 100 µM
TGI (DU-145 prostate): > 100 µM
TGI (LOX IMVI melanoma): > 100 µM
TGI (NCI/ADR-RES ovarian): > 100 µM
TGI (HCT-116 colon): > 100 µM
TGI (MDA-MB-435): > 100 µM
TGI (SR leukemia): > 100 µM
TGI (PC-3 prostate): > 100 µM
TGI (OVCAR-3 ovarian): > 100 µM
TGI (MCF7 breast): > 100 µM
TGI (A498 renal): > 100 µM
TGI (HOP-92 NSCLC): > 100 µM
TGI (SNB-75 CNS): 98.7 µM
TGI (HCC-2998 colon): > 100 µM
TGI (SK-OV-3 ovarian): > 100 µM
TGI (786-0 renal): > 100 µM
TGI (EKVX NSCLC): > 100 µM
TGI (M14 melanoma): > 100 µM
TGI (U251 CNS): > 100 µM
TGI (UACC-62 melanoma): > 100 µM
TGI (SF-268 CNS): > 100 µM
TGI (SK-MEL-28 melanoma): > 100 µM
TGI (SK-MEL-5 melanoma): > 100 µM
TGI (UACC-257 melanoma): > 100 µM
TGI (MOLT-4 leukemia): > 100 µM
TGI (NCI-H226 lung): > 100 µM
TGI (TK-10 renal): > 100 µM
TGI (MDA-MB-231 breast): > 100 µM
TGI (OVCAR-4 ovarian): > 100 µM
TGI (SN12C renal): > 100 µM
TGI (CAKI-1 renal): > 100 µM
TGI (HT29 colon): > 100 µM
TGI (HS 578T breast): > 100 µM
TGI (A549 NSCLC): > 100 µM
TGI (OVCAR-8 ovarian): > 100 µM
TGI (IGROV1 ovarian): > 100 µM
TGI (MDA-N): > 100 µM
TGI (NCI-H522 lung): > 100 µM
TGI (SF-295 CNS): > 100 µM
TGI (NCI-H460 lung): > 100 µM
TGI (NCI-H23 lung): > 100 µM
TGI (CCRF-CEM leukemia): > 100 µM
TGI (HCT-15 colon): > 100 µM
TGI (KM12 colon): > 100 µM
TGI (OVCAR-5 ovarian): > 100 µM
TGI (ACHN renal): > 100 µM

C=CCc1c(O)c2nsnc2c2nsnc12
TGI (T-47D breast): > 10 µM
TGI (RXF 393 renal): > 10 µM
TGI (HL-60(TB) leukemia): > 10 µM
TGI (COLO 205 colon): > 10 µM
TGI (RPMI-8226 leukemia): > 10 µM
TGI (HOP-62 NSCLC): > 10 µM
TGI (MALME-3M melanoma): > 10 µM
TGI (DU-145 prostate): > 10 µM
TGI (LOX IMVI melanoma): > 10 µM
TGI (SW-620 colon): > 10 µM
TGI (SR leukemia): > 10 µM
TGI (PC-3 prostate): > 10 µM
TGI (MCF7 breast): > 10 µM
TGI (SNB-75 CNS): > 10 µM
TGI (HCC-2998 colon): > 10 µM
TGI (SK-OV-3 ovarian): > 10 µM
TGI (786-0 renal): > 10 µM
TGI (EKVX NSCLC): > 10 µM
TGI (M14 melanoma): > 10 µM
TGI (UACC-62 melanoma): > 10 µM
TGI (SF-268 CNS): > 10 µM
TGI (SK-MEL-28 melanoma): > 10 µM
TGI (SK-MEL-5 melanoma): > 10 µM
TGI (UACC-257 melanoma): > 10 µM
TGI (MOLT-4 leukemia): > 10 µM
TGI (TK-10 renal): > 10 µM
TGI (MDA-MB-231 breast): > 10 µM
TGI (K-562 leukemia): > 10 µM
TGI (SN12C renal): > 10 µM
TGI (CAKI-1 renal): > 10 µM
TGI (HT29 colon): > 10 µM
TGI (A549 NSCLC): > 10 µM
TGI (OVCAR-8 ovarian): > 10 µM
TGI (IGROV1 ovarian): > 10 µM
TGI (MDA-N): > 10 µM
TGI (SF-295 CNS): > 10 µM
TGI (NCI-H23 lung): > 10 µM
TGI (CCRF-CEM leukemia): > 10 µM
TGI (HCT-15 colon): > 10 µM
TGI (KM12 colon): > 10 µM
